{"source": "BindingDB's records for doi:10.1021/jm980511k", "about": "(Research Triangle Institute, 1999)", "key": {"[1]": {"experiment": "Binding affinity determined on Opioid receptor delta 1 in Guinea pig brain membranes using radioligand [3H]DADLE"}, "[2]": {"experiment": "Inhibition of [35S]GTP-gamma-S, binding from Opioid receptor delta 1 in Guinea pig Caudate stimulated by SNC80"}}, "data": [{"smiles": "C[C@@H]1CN(C/C=C/c2ccccc2)CC[C@]1(C)c1cccc(O)c1", "note": "[3-[(3S,4S)-3,4-Dimethyl-1-((E)-3-phenyl-allyl)-piperidin-4-yl]-phenol]", "values": [{"measurement": "Ki", "setting": "[1]", "value": 322, "unit": "nM"}, {"measurement": "Ki", "setting": "[2]", "value": 1.5, "unit": "nM"}]}, {"smiles": "CC(C)[C@@H](CN1CC[C@@](C)(c2cccc(O)c2)[C@@H](C)C1)NC(=O)CCc1ccc(O)cc1", "note": "[3-(4-Hydroxy-phenyl)-N-{1-[4-(3-hydroxy-phenyl)-3,4-dimethyl-piperidin-1-ylmethyl]-2-methyl-propyl}-propionamide]", "values": [{"measurement": "Ki", "setting": "[1]", "value": "> 5700", "unit": "nM"}]}]}
